Consider 27 molecules from patent US8299056B2 (Signal Pharmaceuticals, LLC, priority 2008, dated 2012).

The target of this assay is T1, Syk (Homo sapiens, UniProt P43405).
T1 construct: purchased Carna Biosciences
Put plainly: Syk HTRF assay. The assay is classed as biochemical. In outline:
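Read-out is the 665 nm/615 nm time-resolved fluorescence ratio after EDTA stop and Eu-anti-phosphotyrosine plus streptavidin-DyLight 647 detection. Reaction ran 1 h at room temperature with start mix of 87.5 μM ATP and 80 nM substrate peptide in pH 7.6 HEPES/MgCl2 buffer.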
(In general: TR-FRET usually uses a lanthanide donor and a delayed reading to cut background.)

Where [1] appears, read: IC50 activity level, read-out: Activity Level.
Setting [2] is: activity levels A-D, read-out: Activity Level (IC50 in the Syk HTRF assay).
Where [3] appears, read: read-out: Activity Level (Syk HTRF assay IC50).

SMILES strings stand for the structures. Like-named read-outs stand apart in the source and are kept apart here.

Regarding `CC(CN)Cc1cccc2nc(Nc3ccccc3)nn12` (stereo in doubt) [Example 459, (S)-5-(3-amino-2-methylpropyl)-N-phenyl-[1,2,4]triazolo[1,5-a]pyridin-2-amine], the IC50 under setting [1] was 1000 to 10000 nM.

As to `COCCOc1cc(Nc2nc3cccc(N[C@H]4CC[C@@H](O)CC4)n3n2)ccc1F` [Example 210, cis-4-(2-(4-fluoro-3-(2-methoxyethoxy)phenylamino)-[1,2,4]triazolo[1,5-a]pyridin-5-ylamino)cyclohexanol], the IC50 under setting [2] was 0.005 to 250 nM.

On to `c1ccc(Nc2nc3cccc(C4CCNCC4)n3n2)cc1` [Example 512, N-phenyl-5-(piperidin-4-yl)-[1,2,4]triazolo[1,5-a]pyridin-2-amine], for which the IC50 under setting [1] fell in the range of 1000 to 10000 nM.

`COc1cc(-c2cccc3nc(Nc4ccc5c(c4)NC(=O)C5(C)C)nn23)ccn1` [Example 559, 6-(5-(2-methoxypyridin-4-yl)-[1,2,4]triazolo[1,5-a]pyridin-2-ylamino)-3,3-dimethylindolin-2-one]: the IC50 under setting [1] was 0.005 to 250 nM.

On to `CC1(O)CN(c2cccc3nc(Nc4ccc5c(c4)NC(=O)C5(C)C)nn23)C1` [Example 171, 6-(5-(3-hydroxy-3-methylazetidin-1-yl)-[1,2,4]triazolo[1,5-a]pyridin-2-ylamino)-3,3-dimethylindolin-2-one], for which, under setting [3], the IC50 was in the range of 0.005 to 250 nM.

As for `Oc1ccc2cc(Nc3nc4cccc(-c5ccccc5)n4n3)ccc2n1` [compound 26, 6-(5-phenyl-[1,2,4]triazolo[1,5-a]pyridin-2-ylamino)quinolin-2-ol], the IC50 under setting [3] was in the range of 0.005 to 250 nM.

For `Fc1cccc(-c2cccc3nc(Nc4ccc5[nH]ncc5c4)nn23)c1` [compound 2, 5-(3-fluorophenyl)-N-(1H-indazol-5-yl)-[1,2,4]triazolo[1,5-a]pyridin-2-amine], the IC50 under setting [3] lay in the range of 0.005 to 250 nM.

As for `CN1C(=O)C(C)(C)c2ccc(Nc3nc4cccc(NC5CCOC5)n4n3)cc21` (stereo in doubt) [compound 123, (R)-1,3,3-trimethyl-6-(5-(tetrahydrofuran-3-ylamino)-[1,2,4]triazolo[1,5-a]pyridin-2-ylamino)indolin-2-one], the IC50 under setting [3] is 0.005 to 250 nM.

For `CNC(=O)CNCc1cccc2nc(Nc3ccc(C(F)(F)F)cc3)nn12` [Example 213, N-methyl-2-((2-(4-(trifluoromethyl)phenylamino)-[1,2,4]triazolo[1,5-a]pyrridin-5-yl)methylamino)acetamide], the IC50 under setting [2] fell in the range of 1000 to 10000 nM.

`COCc1nc2ccc(-c3cccc4nc(Nc5ccc(C(F)(F)F)cc5)nn34)cc2[nH]1` [Example 401, 5-(2-(methoxymethyl)-1H-benzo[d]imidazol-6-yl)-N-(4-(trifluoromethyl)phenyl)-[1,2,4]triazolo[1,5-a]pyridin-2-amine]: the IC50 under setting [1] lay within 0.005 to 250 nM.

In the case of `O=C1NCCCN1Cc1cccc2nc(Nc3ccc(C(F)(F)F)cc3)nn12` [Example 286, 1-((2-(4-(trifluoromethyl)phenylamino)-[1,2,4]triazolo[1,5-a]pyridin-5-yl)methyl)tetrahydropyrimidin-2(1H)-one], the IC50 under setting [2] fell in the range of 1000 to 10000 nM.

For `CNC(=O)c1ccc(Nc2nc3cccc(NC4CCCC4)n3n2)cc1` [Example 400, 4-(5-(cyclopentylamino)-[1,2,4]triazolo[1,5-a]pyridin-2-ylamino)-N-methylbenzamide], under setting [1], the IC50 was 0.005 to 250 nM.

For the molecule `Cn1ncc2ccc(Nc3nc4cccc(NC5CCOCC5)n4n3)cc21` [Example 161, N^2-(1-methyl-1H-indazol-6-yl)-N^5-(tetrahydro-2H-pyran-4-yl)-[1,2,4]triazolo[1,5-a]pyridin-2,5-diamine], the IC50 under setting [3] lay in the range of 0.005 to 250 nM.

As to `Nc1cc(-c2cccc3nc(Nc4ccccc4)nn23)ccn1` [Example 445, 5-(2-aminopyridin-4-yl)-N-phenyl-[1,2,4]triazolo[1,5-a]pyridin-2-amine], the IC50 under setting [1] was 0.005 to 250 nM.

For the molecule `O=C(O)c1ccc(Nc2nc3cccc(-c4cccc(O)c4)n3n2)cc1` [compound 25, 4-(5-(3-hydroxyphenyl)-[1,2,4]triazolo[1,5-a]pyridin-2-ylamino)benzoic acid], under setting [3], the IC50 was in the range of 0.005 to 250 nM.

On to `FC(F)(F)c1ccc(Nc2nc3cccc(CN4CCOCC4)n3n2)cc1` [Example 308, 5-(morpholinomethyl)-N-(4-(trifluoromethyl)phenyl)-[1,2,4]triazolo[1,5-a]pyridin-2-amine], for which the IC50 under setting [2] lay within 1000 to 10000 nM.

As to `O[C@@H]1CCC(Nc2cccc3nc(Nc4ccc(C(F)(F)F)cc4)nn23)C1` (stereo in doubt) [Example 420, (1R,3R)-3-(2-(4-(trifluoromethyl)phenylamino)-[1,2,4]triazolo[1,5-a]pyridin-5-ylamino)cyclopentanol], the IC50 under setting [1] was in the range of 250 to 500 nM.

With `O[C@H]1CC[C@@H](Nc2cccc3nc(Nc4ccc5[nH]nnc5c4)nn23)CC1` [Example 237, cis-4-(2-(1H-benzo[d][1,2,3]triazolo-5-ylamino)-[1,2,4]triazolo[1,5-a]pyridin-5-ylamino)cyclohexanol], the IC50 under setting [2] was 0.005 to 250 nM.

Regarding `C[C@]1(O)CC[C@H](Nc2cccc3nc(Nc4ccc(C(F)(F)F)cc4)nn23)CC1` [Example 383, trans-1-methyl-4-(2-(4-(trifluoromethyl)phenylamino)-[1,2,4]triazolo[1,5-a]pyridin-5-ylamino)cyclohexanol], the IC50 under setting [2] was in the range of 500 to 1000 nM.

Turning to `Fc1ccc(Nc2nc3cccc(NC4CCCCNC4)n3n2)cc1` (stereo not drawn) [Example 427, N^5-(azepan-3-yl)-N^2-(4-fluorophenyl)-[1,2,4]triazolo[1,5-a]pyridine-2,5-diamine], under setting [1], the IC50 was 250 to 500 nM.

Turning to `Oc1cc(Nc2nc3cccc(N[C@H]4CC[C@@H](O)CC4)n3n2)ccn1` [Example 331, cis-4-(5-(4-hydroxycyclohexylamino)-[1,2,4]triazolo[1,5-a]pyridin-2-ylamino)pyridin-2-ol], the IC50 under setting [2] fell in the range of 1000 to 10000 nM.

`Cc1cc(Nc2nc3cccc(N[C@H]4CC[C@@H](O)CC4)n3n2)cc(C)n1` [Example 261, cis-4-(2-(2,6-dimethylpyridin-4-ylamino)-[1,2,4]triazolo[1,5-a]pyridin-5-ylamino)cyclohexanol]: the IC50 under setting [2] lay in the range of 500 to 1000 nM.

Turning to `Cc1nn(C)c2cc(Nc3nc4cccc(N[C@H]5CC[C@@H](O)CC5)n4n3)ccc12` [Example 218, cis-4-(2-(1,3-dimethyl-1H-indazol-6-ylamino)-[1,2,4]triazolo[1,5-a]pyridin-5-ylamino)cyclohexanol], the IC50 under setting [2] lay in the range of 0.005 to 250 nM.

For `CNC(=O)c1ccc(Nc2nc3cccc(NC4CCC(N)CC4)n3n2)cc1` (stereo in doubt) [Example 394, trans-4-(5-(4-aminocyclohexylamino)-[1,2,4]triazolo[1,5-a]pyridin-2-ylamino)-N-methylbenzamide], the IC50 under setting [2] was 250 to 500 nM.

On to `Nc1n[nH]c2ccc(-c3cccc4nc(Nc5ccccc5)nn34)cc12` [Example 511, 5-(3-amino-1H-indazol-5-yl)-N-phenyl-[1,2,4]triazolo[1,5-a]pyridin-2-amine], for which, under setting [1], the IC50 fell in the range of 250 to 500 nM.

`O[C@H]1CC[C@@H](Nc2cccc3nc(Nc4ccccc4)nn23)CC1` [Example 471, cis-4-(2-(phenylamino)-[1,2,4]triazolo[1,5-a]pyridin-5-ylamino)cyclohexanol]: the IC50 under setting [1] lay in the range of 0.005 to 250 nM.

Consider `NC(=O)c1ccc(Nc2nc3cccc(N[C@H]4CCCNC4)n3n2)cc1` [Example 483, (S)-4-(5-(piperidin-3-ylamino)-[1,2,4]triazolo[1,5-a]pyridin-2-ylamino)benzamide], for which the IC50 under setting [1] was 0.005 to 250 nM.
